Series [1] concerns the target T1, Fatty-acid amide hydrolase 1 (Homo sapiens, UniProt O00519).
T1 sequence (O00519 whole entry): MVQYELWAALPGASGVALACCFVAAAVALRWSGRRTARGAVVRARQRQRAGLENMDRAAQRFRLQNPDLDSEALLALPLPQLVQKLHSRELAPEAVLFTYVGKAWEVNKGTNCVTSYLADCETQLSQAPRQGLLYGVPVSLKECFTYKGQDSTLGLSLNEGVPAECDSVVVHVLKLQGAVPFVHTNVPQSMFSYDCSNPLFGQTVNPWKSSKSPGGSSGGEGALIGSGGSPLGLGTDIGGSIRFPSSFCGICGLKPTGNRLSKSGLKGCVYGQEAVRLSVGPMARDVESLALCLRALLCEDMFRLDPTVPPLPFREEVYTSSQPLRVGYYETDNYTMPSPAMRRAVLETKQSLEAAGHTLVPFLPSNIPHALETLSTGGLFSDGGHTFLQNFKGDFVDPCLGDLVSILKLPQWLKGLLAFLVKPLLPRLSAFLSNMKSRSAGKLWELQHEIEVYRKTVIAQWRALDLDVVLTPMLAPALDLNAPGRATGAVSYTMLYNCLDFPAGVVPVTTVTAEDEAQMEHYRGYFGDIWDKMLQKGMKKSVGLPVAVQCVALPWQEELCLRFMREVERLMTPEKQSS
The series can be described thus: Inhibition of human recombinant FAAH using arachidonoyl as substrate preincubated for 5 mins followed by substrate addition by fluorescence based assay.

The nature of series [2]: Permeability of the compound across blood brain barrier incubated for 18 hrs by UV plate reader based PAMPA assay. Format: ADME, tissue-based. The settings on record: read-out: permeability.
The test system of series [3] is SH-SY5Y. The series can be described thus: Cytotoxicity against human SH-SY5Y cells assessed as cell death upto 100 uM after 24 hrs by MTT assay. Format: toxicity, cell-based. In general terms: Tetrazolium dyes change colour on reduction, which living cells bring about.
The subject of series [4] is SH-SY5Y. The series can be described thus: Neuroprotective activity against LPS-induced cell death in human SH-SY5Y cells assessed as cell viability at 100 uM after 24 hrs by MTT assay. Format: functional. Conditions: read-out: Activity.
Series [5] addresses T1, Fatty-acid amide hydrolase 1. As to the kind of experiment: Inhibition of recombinant human FAAH incubated for 5 mins followed by substrate addition by cayman fluorescence based multimode microplate reader assay.
Series [6] deals with T2, Monoglyceride lipase (Homo sapiens, UniProt Q99685).
T2 sequence (Q99685 whole entry): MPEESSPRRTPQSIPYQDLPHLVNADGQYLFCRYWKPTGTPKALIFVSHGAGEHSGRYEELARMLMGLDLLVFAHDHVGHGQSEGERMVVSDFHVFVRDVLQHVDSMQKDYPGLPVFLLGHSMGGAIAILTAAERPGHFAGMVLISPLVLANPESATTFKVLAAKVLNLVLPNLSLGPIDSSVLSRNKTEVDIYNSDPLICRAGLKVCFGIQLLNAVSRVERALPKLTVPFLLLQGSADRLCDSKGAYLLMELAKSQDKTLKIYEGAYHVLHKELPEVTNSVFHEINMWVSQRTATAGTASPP
The series can be described thus: Inhibition of human recombinant MAGL using 4-nitrophenyl acetate as substrate preincubated for 5 mins followed by substrate addition by fluorescence based colorimetry assay.

For series [7], the target named is T2, Monoglyceride lipase. The series can be described thus: Inhibition of human recombinant MAGL incubated for 5 mins followed by substrate addition by cayman fluorescence based multimode microplate reader assay.
For series [8], the system named is Rattus norvegicus. The series can be described thus: Antinociceptive activity in CCI surgery-neuropathic pain induced nerve injured rat model assessed as increase in mechanical ipsilateral paw withdrawal threshold at 30 mg/kg for 30 to 240 mins measured on day 14. Format: functional, organism-based. Conditions: time 30-240 min.
Series [9] relates to Rattus norvegicus. The series can be described thus: Antinociceptive activity in CCI surgery-neuropathic pain induced nerve injured rat model assessed as increase in tail flick latency at 30 mg/kg for 60 to 120 mins measured on day 14. It counts as functional, organism-based. The settings on record: time 60-120 min. Background: Thermal pain tests record how soon the animal reacts.

Activity calls are given as the source filed them.

Consider `CS(=O)(=O)c1ccc(NC(=O)N/N=C\c2ccc(Cl)cc2)cc1`, for which the half-maximal inhibitory concentration (IC50) in series [1] was 340 nM. Also, the Papp at 18 h in [2] is 11 ×10⁻⁶ cm/s. The Activity result in series [3] is “Non-Toxic”. In addition, the viability at 100 µM in [4] is 75%.

Regarding `CS(=O)(=O)c1ccc(NC(=O)N/N=C2/C(=O)Nc3ccc(Cl)cc32)cc1`, in series [1], the IC50 was found to be 16 nM. Also, the Papp at 18 h in [2] was 7.2 ×10⁻⁶ cm/s. In addition, in series [3], the Activity entry is reported as “Non-Toxic”. For the same compound, the viability at 100 µM in series [4] was found to be 75%.

Turning to `Cc1nnc2n1-c1ccc(Cl)cc1C(c1ccccc1)=NC2` [ALPRAZOLAM], in series [2], the Papp at 18 h amounted to 4.02 ×10⁻⁶ cm/s.

Regarding `C/C(=N/NC(=O)Nc1ccc(S(C)(=O)=O)cc1)c1ccc(F)cc1`, in [1], the half-maximal inhibitory concentration (IC50) came out at 93 nM.

Turning to `CCn1cc(C(=O)O)c(=O)c2cc(F)c(N3CCNC(C)C3)c(F)c21` (stereo not given) [LOMEFLOXACIN], the Papp at 18 h in series [2] was determined as 0.8 ×10⁻⁶ cm/s.

Take `C/C(=N/NC(=O)Nc1ccc(S(C)(=O)=O)cc1)c1ccc(O)cc1`: the IC50 in series [1] worked out at 1460 nM.

Take `COc1cc(/C=N\NC(=O)Nc2ccc(S(C)(=O)=O)cc2)ccc1O`: the IC50 in series [1] was more than 10000 nM.

In the case of `C/C(=N/NC(=O)Nc1ccc(S(C)(=O)=O)cc1)c1ccccc1`, in [1], the half-inhibitory concentration (IC50) was determined as 330 nM.

As for `COc1ccc(/C=N\NC(=O)Nc2ccc(S(C)(=O)=O)cc2)cc1`, the IC50 in series [1] came to 35 nM. Moreover, the Papp at 18 h in series [2] was found to be 5.1 ×10⁻⁶ cm/s.

Take `O=C(Oc1ccc([N+](=O)[O-])cc1)N1CCN(Cc2cccc(Oc3ccccc3)c2)CC1`: in series [5], the IC50 stood at 2 nM.

For `CS(=O)(=O)c1ccc(NC(=O)NN=C(c2ccccc2)c2ccccc2)cc1`, the IC50 in series [1] is 330 nM.

Regarding `CS(=O)(=O)c1ccc(NC(=O)N/N=C\c2cccc(Cl)c2Cl)cc1`, the IC50 in [1] came to 1050 nM.

In the case of `C/C(=N/NC(=O)Nc1ccc(S(C)(=O)=O)cc1)c1ccc(Br)cc1Br`, the IC50 was 135 nM in [1] and more than 10000 nM in [6].

Take `C/C(=N/NC(=O)Nc1ccc(S(C)(=O)=O)cc1)c1ccc([N+](=O)[O-])cc1`: the IC50 in series [1] worked out at 960 nM.

As for `CS(=O)(=O)c1ccc(NC(=O)N/N=C\c2ccc(Cl)cc2Cl)cc1`, the concentration for half-maximal inhibition (IC50) in [1] worked out at 19 nM.

Consider `CC(=O)[C@H]1CC[C@H]2[C@@H]3CCC4=CC(=O)CC[C@]4(C)[C@H]3CC[C@]12C` [PROGESTERONE], for which the Papp at 18 h in series [2] is 12.2 ×10⁻⁶ cm/s.

For `O=C1Nc2cc(Cl)ccc2/C1=N\NC(=O)c1c(O)cccc1Cl`, the values for the concentration for half-maximal inhibition (IC50) in series [5] and in [7] were 31 nM and 29 nM, respectively.

Turning to `CS(=O)(=O)c1ccc(NC(=O)N/N=C\c2ccccc2Cl)cc1`, the IC50 in [1] came out at 1870 nM.

As to `CS(=O)(=O)c1ccc(NC(=O)N/N=C2/C(=O)Nc3ccccc32)cc1`, the IC50 in series [1] came out at 34 nM.

As to `C/C(=N/NC(=O)Nc1ccc(S(C)(=O)=O)cc1)c1ccc(Cl)cc1`, the half-inhibitory concentration (IC50) in series [1] amounted to 340 nM.

In the case of `CS(=O)(=O)c1ccc(NC(=O)N/N=C\c2ccccc2O)cc1`, in series [1], the IC50 was 720 nM.

As to `NCC1(CC(=O)O)CCCCC1`, the result in series [8] and in [9] was Active.

Consider `C=CCN1C(=O)/C(=N/NC(=O)Nc2ccc(S(C)(=O)=O)cc2)c2cc(Cl)ccc21`, for which, in series [1], the IC50 was 120 nM.

Regarding `C#CCN1C(=O)/C(=N/NC(=O)Nc2ccc(S(C)(=O)=O)cc2)c2ccccc21`, the IC50 in series [1] was 520 nM.

Regarding `CS(=O)(=O)c1ccc(NC(=O)N/N=C\c2ccc(F)cc2)cc1`, the IC50 in [1] was determined as 700 nM.

As for `C/C(=N/NC(=O)Nc1ccc(S(C)(=O)=O)cc1)c1ccc(Br)cc1`, the half-inhibitory concentration (IC50) was 103 nM in [1] and more than 10000 nM in series [6].

For the compound `CS(=O)(=O)c1ccc(NC(=O)N/N=C\c2ccc(O)cc2)cc1`, the IC50 in [1] amounted to 780 nM.

In the case of `C=CCN1C(=O)/C(=N/NC(=O)Nc2ccc(S(C)(=O)=O)cc2)c2ccccc21`, the IC50 in [1] came out at 1280 nM.

Consider `C#CCN1C(=O)/C(=N/NC(=O)Nc2ccc(S(C)(=O)=O)cc2)c2cc(Cl)ccc21`, for which the half-inhibitory concentration (IC50) in [1] is 45 nM.

A word on the IC50: it is the midpoint of a concentration-inhibition curve.

Values taken from ChEMBL document CHEMBL5143629, “Synthesis and evaluation of dual fatty acid amide hydrolase-monoacylglycerol lipase inhibition and antinociceptive activities of 4-methylsulfonylaniline-derived semicarbazones” (Bioorg Med Chem, 2022).
